Some test systems named below: Escherichia coli W160-37; Bacillus subtilis; Escherichia coli K-12; Escherichia coli; Candida albicans MDM8; Escherichia coli SBS 363; Micrococcus luteus A270.
Holding throughout (test): ≥ marks a high value that may be exact or a test limit, other limits are often not marked, values filed in µg/mL are converted to µM
Assay [1] concerns Bacillus subtilis CMCC 63501.
Assay [2] concerns Staphylococcus aureus CMCC 26003.
Assay [3] deals with Listeria monocytogenes ATCC 19115.
The test system of assay [4] is Pseudomonas aeruginosa CMCC 10104.
Assay [5] relates to Escherichia coli CMCC 44102.
Assay [6] has as its system Pseudomonas putida NCIM 2102.
The test system of assay [7] is Staphylococcus aureus 8530.
For assay [8], the system named is Aspergillus niger CECT 2694.
Assay [9] concerns Fusarium oxysporum f. sp. lycopersici ATCC 201829.
For assay [10], the system named is Penicillium expansum EPS 26.
Assay [11] deals with Rhizopus stolonifer CECT 2344.
The subject of assay [12] is Erwinia amylovora PMV 6076.
The test system of assay [13] is Penicillium digitatum PHI-26.
The subject of assay [14] is Xanthomonas vesicatoria 2133-2.
Assay [15] relates to Pseudomonas syringae EPS 94.
The subject of assay [16] is Escherichia coli DH5alpha.
Assay [17] relates to Saccharomyces cerevisiae FY1679.
For assay [18], the system named is Pseudomonas aeruginosa ATCC 27853.
The subject of assay [19] is Micrococcus luteus NCIMB 13267.
Assay [20] deals with Salmonella typhimurium DA22427.
For assay [21], the system named is Salmonella typhimurium DA23899.
Assay [22] concerns Bacillus subtilis ATCC 6633.
For assay [23], the system named is Staphylococcus aureus ATCC 6538.
Assay [24] concerns Salmonella typhimurium DA6192.
The test system of assay [25] is Candida albicans ATCC 10231.
Assay [26] has as its system Enterococcus faecalis ATCC 29212.
Assay [27] deals with Escherichia coli ATCC 25922.
Assay [28] concerns Listeria monocytogenes ATCC 15313.
Assay [29] relates to Klebsiella pneumoniae ATCC 700603.
For assay [30], the system named is Enterococcus faecalis NCTC 12697.
Assay [31] concerns Candida albicans NCTC 1467.
For assay [32], the system named is Bacillus cereus ATCC 11778.
Assay [33] concerns Staphylococcus aureus NCTC 10788.
Assay [34] deals with Escherichia coli NCTC 10418.
Assay [35] concerns Staphylococcus aureus ATCC 12493.
For assay [36], the system named is Salmonella enterica subsp. enterica serovar Enteritidis ATCC 13076.
Assay [37] deals with Staphylococcus aureus ATCC 25923.
In assay [38] the test system is Bacillus subtilis ATCC 23857.

In brackets after ≈: the same amount, converted by molar mass. Several values for one entry are separate records, joined by “and”; a condition that tells them apart may be missing. Equal values may be shown once.

On to `CC[C@H](C)[C@H](NC(=O)[C@H](CCCN=C(N)N)NC(=O)[C@H](CCCN=C(N)N)NC(=O)[C@H](Cc1c[nH]c2ccccc12)NC(=O)[C@@H](N)Cc1ccccc1)C(=O)N[C@@H](CCCN=C(N)N)C(=O)N[C@H](C(=O)N[C@H](C(=O)N1CCC[C@H]1C(=O)N[C@H](C(=O)N[C@H](C(=O)N[C@@H](CC(N)=O)C(=O)N1CCC[C@H]1C(=O)N[C@@H](Cc1c[nH]c2ccccc12)C(=O)N[C@@H](Cc1ccccc1)C(=O)N[C@@H](CC(C)C)C(=O)N[C@@H](CCC(N)=O)C(=O)N[C@@H](CCC(N)=O)C(=O)N[C@H](C(N)=O)[C@@H](C)O)C(C)C)C(C)C)[C@@H](C)O)C(C)C` [FWRRIRVTPVVNPWFLQQT], for which the MIC is 26.2 µM (≈ 64 µg/mL) in [1]; 13.1 µM (≈ 32 µg/mL) in assay [2]; 13.1 µM (≈ 32 µg/mL) in [3]; not below 105 µM in assay [4]; not below 105 µM in assay [5].

Regarding `CC[C@H](C)[C@H](NC(=O)[C@H](CC(C)C)NC(=O)[C@H](C)NC(=O)[C@@H]1CCCN1C(=O)[C@H](CC(C)C)NC(=O)CN)C(=O)N[C@@H](CO)C(=O)N[C@@H](Cc1c[nH]c2ccccc12)C(=O)N[C@H](C(=O)N[C@@H](CCCCN)C(=O)N[C@@H](CCCN=C(N)N)C(=O)N[C@@H](CCCCN)C(=O)N[C@@H](CCCN=C(N)N)C(=O)N[C@@H](CCC(N)=O)C(=O)N[C@@H](CCC(N)=O)C(=O)NCC(N)=O)[C@@H](C)CC` [GLPALISWIKRKRQQG], the MIC in the assay on Escherichia coli W160-37 is 21.4 µM (≈ 39.7 µg/mL); in assay [6], not below 108 µM; against Bacillus subtilis it was 10.5 µM (≈ 19.4 µg/mL); in assay [7], 16 µM (≈ 29.6 µg/mL).

Regarding `CC[C@H](C)[C@H](NC(=O)[C@H](CCCCN)NC(=O)[C@H](CCCCN)NC(=O)[C@H](Cc1ccccc1)NC(=O)[C@H](CC(C)C)NC(=O)[C@H](CCCCN)NC(=O)[C@@H](N)CCCCN)C(=O)N[C@@H](CC(C)C)C(=O)N[C@@H](CCCCN)C(=O)N[C@H](C(=O)N[C@@H](CC(C)C)C(N)=O)C(C)C` [KKLFKKILKVL], the minimal inhibitory concentration (MIC) in [8] worked out at 6.12 µM (≈ 8.31 µg/mL); in assay [9], 0.849 µM (≈ 1.15 µg/mL); in assay [10], 13.7 µM (≈ 18.6 µg/mL); in [11], 8.66 µM (≈ 11.8 µg/mL); in [12], 5.92 µM (≈ 8.03 µg/mL); in assay [13] it was 4 µM (≈ 5.43 µg/mL). Also, the MIC in assay [14] was determined as 13.4 µM (≈ 18.2 µg/mL); in assay [15], 3.16 µM (≈ 4.29 µg/mL); in [16], 4 µM (≈ 5.43 µg/mL); in [17], 16 µM (≈ 21.7 µg/mL).

For the compound `CC[C@H](C)[C@H](NC(=O)CNC(=O)[C@H](CC(N)=O)NC(=O)[C@H](CCCN=C(N)N)NC(=O)[C@@H](NC(=O)[C@H](CC(N)=O)NC(=O)[C@H](CCCN=C(N)N)NC(=O)CNC(=O)[C@H](CCSC)NC(=O)[C@H](CCCCN)NC(=O)[C@H](CCC(=O)O)NC(=O)[C@@H](NC(=O)[C@H](CCCCN)NC(=O)[C@H](CCCCN)NC(=O)[C@H](Cc1ccccc1)NC(=O)[C@@H](NC(=O)[C@H](CCCCN)NC(=O)[C@H](Cc1c[nH]c2ccccc12)NC(=O)[C@@H](N)CCCCN)C(C)C)[C@@H](C)CC)[C@@H](C)CC)C(=O)N[C@H](C(=O)N[C@@H](CCCCN)C(N)=O)C(C)C` [KWKVFKKIEKMGRNIRNGIVK], the MIC in [18] is 1.5 µM (≈ 3.86 µg/mL); in the assay with Escherichia coli K-12, 6 µM (≈ 15.4 µg/mL); in [19], 1 µM (≈ 2.57 µg/mL); in assay [20] it was 12 µM (≈ 30.9 µg/mL); in assay [21], 25 µM (≈ 64.3 µg/mL); in [22] it was 5 µM (≈ 12.9 µg/mL). Besides, the MIC in assay [23] was more than 100 µM; in assay [24], 12 µM (≈ 30.9 µg/mL).

In the case of `CC[C@H](C)[C@H](NC(=O)[C@H](CCCCN)NC(=O)[C@H](CCCCN)NC(=O)[C@H](C)NC(=O)[C@@H](NC(=O)[C@H](C)NC(=O)[C@H](CC(C)C)NC(=O)[C@H](CC(C)C)NC(=O)[C@H](C)NC(=O)[C@H](CCCCN)NC(=O)[C@H](CC(C)C)NC(=O)[C@H](CC(N)=O)NC(=O)[C@@H](N)CC(C)C)C(C)C)C(=O)N[C@@H](CC(C)C)C(N)=O` [LNLKALLAVAKKIL], the MIC in [18] was 8 µM and 16 µM; in assay [25], 8 µM (≈ 12.1 µg/mL); in assay [26] it was not below 32 µM; in [27], 4 µM and 8 µM; in [28], 4 µM (≈ 6.03 µg/mL); in [29], 8 µM (≈ 12.1 µg/mL). The MIC in assay [30] was 8 µM (≈ 12.1 µg/mL); in assay [31], 4 µM (≈ 6.03 µg/mL); in assay [32], 4 µM and 8 µM; in [33], 2 µM (≈ 3.01 µg/mL); in assay [34], 4 µM (≈ 6.03 µg/mL); in assay [35] it was 4 µM (≈ 6.03 µg/mL). For the same compound, the MIC (in assay [36]; in [37]; in [38]; against Escherichia coli) was 4 µM (≈ 6.03 µg/mL) in each case.

`CC[C@H](C)[C@H](NC(=O)[C@H](CC(C)C)NC(=O)[C@H](CCCCN)NC(=O)[C@H](CCCN=C(N)N)NC(=O)[C@H](Cc1ccccc1)NC(=O)[C@H](CC(C)C)NC(=O)[C@H](CO)NC(=O)[C@H](CC(C)C)NC(=O)[C@H](CC(C)C)NC(=O)[C@@H](N)CO)C(N)=O` [SLLSLFRKLI]: the MIC against Candida albicans MDM8 amounted to 1.56 µM (≈ 1.85 µg/mL); against Escherichia coli SBS 363, 3.12 µM (≈ 3.71 µg/mL); against Micrococcus luteus A270 it was 1.56 µM (≈ 1.85 µg/mL).

These data come from DBAASP.
